Test results published in US12071434B2, “Heterocyclic compound” (Takeda Pharmaceutical Company Limited, priority 2018, dated 2024).

biological target: T1, human orexin type 2 receptor (Homo sapiens, UniProt O43614); experiment: Measurement of orexin type 2 receptor agonist activity (calcium fluorescence, Fluo-4 AM, FDSS) in CHO cells forcibly expressing human OX2 receptor; assay type: cell-based; conditions: test compound 3 μM, DMSO = 0%, orexin A (human) 10 nM = 100%
T1 construct: expressed in transfected cells
T1 sequence (O43614 1-444): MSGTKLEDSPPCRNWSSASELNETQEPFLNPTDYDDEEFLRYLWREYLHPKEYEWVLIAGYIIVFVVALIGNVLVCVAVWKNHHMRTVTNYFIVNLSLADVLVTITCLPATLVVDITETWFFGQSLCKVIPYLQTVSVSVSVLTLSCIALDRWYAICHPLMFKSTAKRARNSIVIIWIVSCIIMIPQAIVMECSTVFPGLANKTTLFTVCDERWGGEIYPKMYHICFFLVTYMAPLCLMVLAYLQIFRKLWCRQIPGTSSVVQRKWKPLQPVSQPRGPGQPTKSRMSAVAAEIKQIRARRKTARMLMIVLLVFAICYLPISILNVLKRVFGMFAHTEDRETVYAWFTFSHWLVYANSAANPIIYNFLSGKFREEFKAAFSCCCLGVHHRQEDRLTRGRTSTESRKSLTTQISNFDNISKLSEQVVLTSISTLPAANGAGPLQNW
Source text: To obtain a cell clone stably expressing human orexin type 2 receptor, human orexin type 2 receptor cDNA was inserted into pcDNA3.1(+) plasmid vector (Invitrogen), and a plasmid DNA for expression of human orexin type 2 receptor (pcDNA3.1(+)/hOX2R) was cloned. The plasmid DNA was introduced into CHO-dhfr cell by an electroporation method, and human orexin type 2 receptor expressing clone cells were obtained by limiting dilution method by using G418 drug resistance as a selection marker.
CHO cells forcibly expressing human OX2 receptor were seeded in each well of 384 well black transparent bottom plate (BD Falcon) at 7,500 cells/well, and cultured for one day in a 5% CO2 incubator at 37° C. After removal of the medium in the cell plate, assay buffer A containing a calcium indicator (HBSS (Thermo Fisher Scientific), 20 mM HEPES (Thermo Fisher Scientific), 0.1% BSA (Sigma-Aldrich), 2.5 μg/mL Fluo-4 AM (DOJINDO Chemical), 0.08% Pluronic F127 (DOJINDO Chemical), 1.25 mM probenecid (DOJINDO Chemical)) was added at 30 μL/well. The plate was stood for 30 min in a 5% CO2 incubator at 37° C., and further stood at room temperature for 30 min. A test compound prepared by diluting with assay buffer B (HBSS, 20 mM HEPES, 0.1% BSA) was added at 10 μL/well, and the fluorescence value was measured by FDSSpCELL (Hamamatsu Photonics K.K.) every one sec for 1 min, and thereafter every two sec for 1 min 40 sec. The activity (%) of the test compound was calculated assuming that variation in the fluorescence value when DMSO was added instead of the test compound was 0%, and variation in the fluorescence value when orexin A (human) (PEPTIDE INSTITUTE, INC.) was added at the final concentration of 10 nM was 100%.

0X2R agonist activity (3 μM, %)	SMILES
101%	CC(C)c1nn(C)c2c(c1=O)[C@@H](Cc1cccc(-c3ccccc3)c1)[C@@H](NS(C)(=O)=O)CC2 (racemic) [Example 158, rac-N-[(5R,6S)-5-[([1,1′-biphenyl]-3-yl)methyl]-1-methyl-4-oxo-3-(propan-2-yl)-1,4,5,6,7,8-hexahydrocinnolin-6-yl]methanesulfonamide]
97%	CS(=O)(=O)N[C@H]1CCc2ccc(C#N)c(=O)n2[C@H]1Cc1cccc(-c2ccccc2)c1 (racemic) [Example 28, rac-N-{(3S,4S)-4-[([1,1′-biphenyl]-3-yl)methyl]-7-cyano-6-oxo-1,3,4,6-tetrahydro-2H-quinolizin-3-yl}methanesulfonamide]
104%	CC(C)n1ccc2c(c1=O)[C@@H](Cc1cccc(-c3ccccc3)n1)[C@@H](NS(C)(=O)=O)CC2 (racemic) [Example 148, rac-N-[(7S,8R)-1-oxo-8-[(6-phenylpyridin-2-yl)methyl]-2-(propan-2-yl)-1,2,5,6,7,8-hexahydroisoquinolin-7-yl]methanesulfonamide]
96%	CCn1ccc2c(c1=O)[C@@H](Cc1cccc(-c3ccccc3)c1)[C@@H](NS(C)(=O)=O)CC2 (racemic) [Example 47, rac-N-{(7S,8R)-8-[([1,1′-biphenyl]-3-yl)methyl]-2-ethyl-1-oxo-1,2,5,6,7,8-hexahydroisoquinolin-7-yl}methanesulfonamide]
107%	CCS(=O)(=O)N[C@H]1CCc2ncn(C(C)C)c(=O)c2[C@H]1Cc1cccc(-c2cc(C)ccn2)c1 (racemic) [Example 98, rac-N-[(5R,6S)-5-{[3-(4-methylpyridin-2-yl)phenyl]methyl}-4-oxo-3-(propan-2-yl)-3,4,5,6,7,8-hexahydroquinazolin-6-yl]ethanesulfonamide]
93%	COC1(C(=O)N[C@H]2CCc3ccc(C)c(=O)n3[C@H]2Cc2cccc(-c3cccc(F)c3)c2F)CC1 (relative stereo) [Example 56, rel-N-{(3S,4S)-4-[(2,3′-difluoro[1,1′-biphenyl]-3-yl)methyl]-7-methyl-6-oxo-1,3,4,6-tetrahydro-2H-quinolizin-3-yl}-1-methoxycyclopropane-1-carboxamide]
98%	CCn1ccc2c(c1=O)[C@@H](Cc1cccc(-c3cccc(C)c3F)c1)[C@@H](NS(C)(=O)=O)CC2 (racemic) [Example 120, rac-N-{(7S,8R)-2-ethyl-8-[(2′-fluoro-3′-methyl[1,1′-biphenyl]-3-yl)methyl]-1-oxo-1,2,5,6,7,8-hexahydroisoquinolin-7-yl}methanesulfonamide]
89%	CCc1ccc2n(c1=O)[C@@H](Cc1cccc(C3CC3)c1)[C@@H](NS(C)(=O)=O)CC2 (racemic) [Example 136, rac-N-{(3S,4S)-4-[(3-cyclopropylphenyl)methyl]-7-ethyl-6-oxo-1,3,4,6-tetrahydro-2H-quinolizin-3-yl}methanesulfonamide]
106%	CS(=O)(=O)N[C@H]1CCc2ccc(Cl)c(=O)n2[C@H]1Cc1cccc(-c2ccccc2)c1 (racemic) [Example 15, rac-N-{(3S,4S)-4-[([1,1′-biphenyl]-3-yl)methyl]-7-chloro-6-oxo-1,3,4,6-tetrahydro-2H-quinolizin-3-yl}methanesulfonamide]
91%	CC(C)n1cnc2c(c1=O)C(Cc1csc(-c3ccccc3)n1)C(NS(=O)(=O)C1(F)CC1)CC2 (stereo not drawn) [Example 194, rel-1-fluoro-N-{4-oxo-5-[(2-phenyl-1,3-thiazol-4-yl)methyl]-3-(propan-2-yl)-3,4,5,6,7,8-hexahydroquinazolin-6-yl}cyclopropane-1-sulfonamide]
86%	Cc1ccc2n(c1=O)[C@@H](Cc1cccc(-c3cccc(F)c3)n1)[C@@H](NS(C)(=O)=O)CC2 (racemic) [Example 59, rac-N-[(3S,4S)-4-{[6-(3-fluorophenyl)pyridin-2-yl]methyl}-7-methyl-6-oxo-1,3,4,6-tetrahydro-2H-quinolizin-3-yl]methanesulfonamide]
89%	Cc1cnc2n(c1=O)[C@@H](Cc1cccc(-c3ccccc3)c1)[C@@H](NS(C)(=O)=O)CC2 (racemic) [Example 94, rac-N-{(6S,7S)-6-[([1,1′-biphenyl]-3-yl)methyl]-3-methyl-4-oxo-6,7,8,9-tetrahydro-4H-pyrido[1,2-a]pyrimidin-7-yl}methanesulfonamide]
97%	CC(C)n1cnc2c(c1=O)[C@@H](Cc1cccc(-c3ccn(C)n3)c1)[C@@H](NS(C)(=O)=O)CC2 (racemic) [Example 117, rac-N-[(5R,6S)-5-{[3-(1-methyl-1H-pyrazol-3-yl)phenyl]-methyl}-4-oxo-3-(propan-2-yl)-3,4,5,6,7,8-hexahydroquinazolin-6-yl]methanesulfonamide]
104%	CC(C)n1cnc2c(c1=O)[C@@H](Cc1csc(-c3ccccc3F)n1)[C@@H](NS(C)(=O)=O)CC2 (relative stereo) [Example 155, rel-N-[(5R,6S)-5-{[2-(2-fluorophenyl)-1,3-thiazol-4-yl]methyl}-4-oxo-3-(propan-2-yl)-3,4,5,6,7,8-hexahydroquinazolin-6-yl]methanesulfonamide]
92%	CC(C)=Cc1cccc(C[C@@H]2c3c(ncn(C(C)C)c3=O)CC[C@@H]2NS(=O)(=O)C2(F)CC2)c1 (racemic) [Example 197, rac-1-fluoro-N-[(5R,6S)-5-{[3-(2-methylprop-1-en-1-yl)phenyl]methyl}-4-oxo-3-(propan-2-yl)-3,4,5,6,7,8-hexahydroquinazolin-6-yl]cyclopropane-1-sulfonamide]
104%	CCc1ccc2n(c1=O)[C@@H](Cc1cccc(-c3cc(F)cc(F)c3)c1F)[C@@H](NS(C)(=O)=O)CC2 (racemic) [Example 132, rac-N-{[3S,4S)-7-ethyl-6-oxo-4-[(2,3′,5′-trifluoro[1,1′-biphenyl]-3-yl)methyl]-1,3,4,6-tetrahydro-2H-quinolizin-3-yl}methanesulfonamide]
97%	Cc1ccc(=O)n2c1CC[C@H](NS(C)(=O)=O)[C@@H]2Cc1cccc(-c2ccccc2)c1 (racemic) [Example 8, rac-N-{(3S,4S)-4-[([1,1′-biphenyl]-3-yl)methyl]-9-methyl-6-oxo-1,3,4,6-tetrahydro-2H-quinolizin-3-yl}methanesulfonamide]
92%	CCn1c(C)nc2c(c1=O)C(Cc1cccc(-c3cc(F)cc(F)c3)c1)C(NS(C)(=O)=O)CC2 (racemic) [Example 75]
94%	CC(C)n1cnc2c(c1=O)[C@@H](Cc1cccc(-c3cc(F)cc(F)c3)c1)[C@@H](NS(=O)(=O)C1(F)CC1)CC2 (relative stereo) [Example 187, rel-N-[(5R,6S)-5-[(3′,5′-difluoro[1,1′-biphenyl]-3-yl)methyl]-4-oxo-3-(propan-2-yl)-3,4,5,6,7,8-hexahydroquinazolin-6-yl]-1-fluorocyclopropane-1-sulfonamide]
93%	CC(C)c1nn(C)c2c(c1=O)[C@@H](Cc1csc(-c3ccccc3)n1)[C@@H](NS(C)(=O)=O)C[C@H]2F (racemic) [Example 207, rac-N-[(5R,6S,8R)-8-fluoro-1-methyl-4-oxo-5-[(2-phenyl-1,3-thiazol-4-yl)methyl]-3-(propan-2-yl)-1,4,5,6,7,8-hexahydrocinnolin-6-yl]methanesulfonamide]
90%	CC(C)n1cnc2c(c1=O)C(Cc1cccc(-c3cccc(F)c3)c1)C(NS(=O)(=O)C1(F)CC1)CC2 (stereo not drawn) [Example 186, rel-1-fluoro-N-{5-[(3′-fluoro[1,1′-biphenyl]-3-yl)methyl]-4-oxo-3-(propan-2-yl)-3,4,5,6,7,8-hexahydroquinazolin-6-yl}cyclopropane-1-sulfonamide]
98%	CCS(=O)(=O)N[C@H]1CCc2ncn(C(C)C)c(=O)c2[C@H]1Cc1cccc(-c2cccc(F)c2F)c1 (racemic) [Example 85, rac-N-[(5R,6S)-5-[(2′,3′-difluoro[1,1′-biphenyl]-3-yl)methyl]-4-oxo-3-(propan-2-yl)-3,4,5,6,7,8-hexahydroquinazolin-6-yl]ethanesulfonamide]
